A word on the Emax: it is the greatest response seen or fitted, relative to the assay's reference. Broadly, the EC50 is the concentration that produces a half-maximal response.

Format in all cases: cell-based
In one experiment the target is T1, NURR-1/RXRα (Homo sapiens, UniProt P19793).
T1 construct: expressed in transfected cells; host or cells: Cos-7 cells
Put plainly: Transactivation test, NURR-1-Gal4/RXRα, luciferase reporter in Cos-7 cells. The settings on record: for Emax: COS-7, induction level relative to reference XCT0135908 at 2×10^−5 M (=100%), read-out: hNurr1_RXRaFL Emax (%); for EC50: Cos-7 cells, NURR-1-Gal4/RXRα, luciferase reporter, read-out: hNurr1_RXRaFL EC50. (Reporter assays use an easily measured gene product as a stand-in for the process of interest.)

Another experiment addresses T2, NURR-1/RXRγ (Homo sapiens, UniProt P48443).
T2 construct: expressed in transfected cells; host or cells: Cos-7 cells
Put plainly: Transactivation test, NURR-1-Gal4/RXRγ, luciferase reporter in Cos-7 cells. The conditions noted are these: for Emax: COS-7, induction level relative to reference XCT0135908 at 2×10^−5 M (=100%), read-out: hNurr1_RXRgFL Emax (%); for EC50: Cos-7 cells, NURR-1-Gal4/RXRγ, luciferase reporter, read-out: hNurr1_RXRgFL EC50.

Experiment [1] concerns dopaminergic neurons of primary culture of rat embryo mesencephalon treated with MPP+. In words: Neuroprotection in primary culture of rat embryo mesencephalon treated with MPP+ (count of tyrosine hydroxylase expressing cells). The settings on record: recombinant human BDNF 10 ng/mL = 100%, 2 days with MPP+. The procedure:
Another in vitro test was carried out with the compounds according to the invention, for the purpose of verifying that the molecules indeed have the expected neuroprotective effect in vitro.
The compounds were tested in a model of primary culture of rat embryo mesencephalon treated with 1-methyl-4-phenylpyridinium (MPP+), which is the active metabolite of 1-methyl-4-phenyl-1,2,3,6-tetrahydropyridine (MPTP). MPP+ enters into dopananergic neurons via the dopamine transporter and causes the death of these dopaminergic neurons. The following protocol was used.
Gestating female rats (15 days of gestation) were euthanized and the rat embryos were removed. The mesencephalons were removed. The tissue was then dissociated mechanically and by using trypsin. The cells collected after centrifugation were distributed into 96-well plates and left to stand for 5 days. The culture conditions made it possible to obtain a cell layer composed of neurons (dopaminergic and others) and astrocytes. On the 6th day, the cells were optionally treated with MPP+ in the presence or absence of test compound. After 2 days of incubation, the cells were fixed and various cell labellings were carried out; staining of the nuclei with the Hoechst fluorescent label and immunolabelling of tyrosine hydroxylase. The cells expressing tyrosine hydroxylase were counted using an image analyzer coupled to an optical microscope.
Recombinant human BDNF trophic factor (10 ng/mL) was used as reference. The activities of the compounds are given as percentages of activity relative to the BDNF reference, the activity of which is arbitrarily defined as being equal to 100%.

T2 sequence (P48443 whole entry): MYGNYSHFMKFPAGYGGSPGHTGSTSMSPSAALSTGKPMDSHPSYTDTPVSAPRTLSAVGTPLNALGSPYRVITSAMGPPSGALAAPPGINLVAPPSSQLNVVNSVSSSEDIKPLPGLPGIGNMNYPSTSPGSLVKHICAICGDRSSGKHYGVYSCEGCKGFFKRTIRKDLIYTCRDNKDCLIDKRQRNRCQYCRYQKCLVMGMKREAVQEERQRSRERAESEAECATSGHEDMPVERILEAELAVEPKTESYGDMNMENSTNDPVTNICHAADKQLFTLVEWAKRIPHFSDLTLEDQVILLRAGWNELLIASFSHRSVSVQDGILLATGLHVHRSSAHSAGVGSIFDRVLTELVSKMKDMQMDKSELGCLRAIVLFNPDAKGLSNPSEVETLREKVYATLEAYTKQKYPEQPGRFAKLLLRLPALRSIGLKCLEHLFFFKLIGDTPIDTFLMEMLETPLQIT
T2 sequence (P43354 whole entry partner): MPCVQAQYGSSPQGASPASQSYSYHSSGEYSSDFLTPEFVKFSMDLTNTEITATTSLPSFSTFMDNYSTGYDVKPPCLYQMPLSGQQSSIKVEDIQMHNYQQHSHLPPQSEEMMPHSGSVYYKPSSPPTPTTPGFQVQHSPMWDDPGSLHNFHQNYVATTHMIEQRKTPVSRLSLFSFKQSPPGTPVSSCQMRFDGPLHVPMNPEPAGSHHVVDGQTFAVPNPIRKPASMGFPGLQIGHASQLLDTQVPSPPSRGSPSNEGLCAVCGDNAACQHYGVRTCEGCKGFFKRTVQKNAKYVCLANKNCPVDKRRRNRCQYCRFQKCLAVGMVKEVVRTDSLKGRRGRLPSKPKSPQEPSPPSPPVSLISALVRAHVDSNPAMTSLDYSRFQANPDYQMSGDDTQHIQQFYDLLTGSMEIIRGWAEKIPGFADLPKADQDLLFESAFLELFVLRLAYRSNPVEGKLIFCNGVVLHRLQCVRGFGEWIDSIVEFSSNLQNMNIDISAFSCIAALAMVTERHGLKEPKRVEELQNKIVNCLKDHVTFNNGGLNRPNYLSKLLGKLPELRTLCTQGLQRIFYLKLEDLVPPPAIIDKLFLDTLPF
T2 sequence (P04386 1-147 partner limits assumed): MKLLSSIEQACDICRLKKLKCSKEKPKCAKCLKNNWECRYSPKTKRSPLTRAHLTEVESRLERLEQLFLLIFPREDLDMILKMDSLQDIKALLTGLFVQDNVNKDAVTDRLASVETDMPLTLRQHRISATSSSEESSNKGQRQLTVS
T1 sequence (P19793 whole entry): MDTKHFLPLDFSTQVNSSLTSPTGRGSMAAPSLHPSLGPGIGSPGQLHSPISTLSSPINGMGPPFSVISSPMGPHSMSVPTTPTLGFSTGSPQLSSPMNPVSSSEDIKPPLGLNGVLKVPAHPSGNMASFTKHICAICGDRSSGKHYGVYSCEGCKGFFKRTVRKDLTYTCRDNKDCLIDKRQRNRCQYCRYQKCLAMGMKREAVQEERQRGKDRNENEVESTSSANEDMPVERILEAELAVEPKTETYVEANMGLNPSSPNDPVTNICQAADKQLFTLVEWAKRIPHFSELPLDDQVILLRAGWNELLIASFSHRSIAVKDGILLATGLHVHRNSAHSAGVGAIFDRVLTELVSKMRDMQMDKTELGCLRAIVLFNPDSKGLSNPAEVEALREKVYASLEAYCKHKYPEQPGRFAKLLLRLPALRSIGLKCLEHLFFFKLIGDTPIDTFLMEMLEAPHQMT
T1 sequence (P43354 whole entry partner): as the sequence (P43354 whole entry partner) above
T1 sequence (P04386 1-147 partner limits assumed): as the sequence (P04386 1-147 partner limits assumed) above

In the case of `Cc1cc(-c2cccc(N3CC(C(=O)O)C3)c2)cc(C(F)(F)F)c1` [Example 12, 1-[3-[3-methyl-5-(trifluoromethyl)phenyl]phenyl]azetidine-carboxylic acid], the maximal response (Emax) at NURR-1/RXRα amounted to 122%; at NURR-1/RXRγ, 129%. Also, the EC50 on NURR-1/RXRα is 46 nM; on NURR-1/RXRγ it was 48 nM. Besides, the “percentage of activity relative to the BDNF reference” value in experiment [1] (compound 1 μM) was 64%; in experiment [1] (compound 10 μM) it was 74%.
Take `Cc1cc(N2CC(C(=O)O)C2)cc(-n2cc(C)c3nc(C(F)(F)F)ccc32)c1` [Example 58, 1-[3-methyl-5-[3-methyl;-5-(trifluoromethyl)pyrrol[3,2,-b]pyridine-1-yl]phenyl]azetidine-3-carboxylic acid]: the Emax on NURR-1/RXRα is 118%; on NURR-1/RXRγ it was 102%. In addition, the EC50 is 7 nM at NURR-1/RXRα and 13 nM at NURR-1/RXRγ. In addition, the “percentage of activity relative to the BDNF reference” value was 80% in experiment [1] (compound 1 μM) and 79% in experiment [1] (compound 10 μM).
Take `CC1(C)CNc2c(cc(C(F)(F)F)cc2-c2cccc(N3CC(C(=O)O)C3)c2)O1` [Example 61, 1-[3-[2,2-dimethyl-7-(trifluoromethyl)-3,4 dihydro-1,4-benzoxazin-5-yl]phenyl]azetidine-3-carboxylic acid]: the maximal effect (Emax) at NURR-1/RXRα came out at 91%; on NURR-1/RXRγ it was 107%. Further, the half-maximal effective concentration (EC50) at NURR-1/RXRα came to 8 nM; at NURR-1/RXRγ it was 15 nM. For the same compound, the “percentage of activity relative to the BDNF reference” value was 85% in experiment [1] (compound 1 μM) and 106% in experiment [1] (compound 10 μM).
With `Cc1cc(-c2cc(C(F)(F)F)cc3c2NCC(C)(C)O3)cc(N2CC(C(=O)O)C2)c1` [Example 64, 1-[3-[2,2,-dimethyl-7-(triflouormethyl)3,4-dihydro-1,4-benzoxazin-5-yl]-5-methylphenyl]azetidine-3-carboxylic acid], the results for the Emax on NURR-1/RXRα and at NURR-1/RXRγ were 99% and 109%, respectively. In addition, the EC50 on NURR-1/RXRα and on NURR-1/RXRγ was 4 nM in each case. The “percentage of activity relative to the BDNF reference” value was 81% in experiment [1] (compound 1 μM) and 92% in experiment [1] (compound 10 μM).
As to `CC(Oc1ccc(C(F)(F)F)cc1-c1cccc(N2CC(C(=O)O)C2)c1)c1ccccc1` (centres unmarked) [Example 98, 1-[3-[2-(1-phenylethoxy)-5-(trifluoromethyl)phenyl]phenyl]azetidine-3-carboxylic acid], the figures for the Emax on NURR-1/RXRα and at NURR-1/RXRγ were 51% and 42%, respectively. Further, the values for the concentration giving a half-maximal response (EC50) on NURR-1/RXRα and on NURR-1/RXRγ were 5 nM and 7 nM, respectively. The “percentage of activity relative to the BDNF reference” value is given as 86% in experiment [1] (compound 1 μM) and 132% in experiment [1] (compound 10 μM).
With `O=C(O)C1CN(c2cccc(-c3cc(C(F)(F)F)ccc3OCC3CCCCC3)c2)C1` [Example 104, 1-[3-[2-(cyclohenxylemthoxy)-5-(trifluoromethyl)phenyl]phenyl]azetidine-3-carboxylic acid], the Emax was 40% at NURR-1/RXRα and 42% at NURR-1/RXRγ. Besides, the EC50 came to 50 nM on NURR-1/RXRα and 43 nM on NURR-1/RXRγ. For the same compound, the “percentage of activity relative to the BDNF reference” value in experiment [1] (compound 1 μM) is given as 109%.
Take `CCOc1ccc(C(F)(F)F)cc1-c1cccc(N2CC(C(=O)O)C2)c1` [Example 109, 1-[3-[2-ethoxy-5-(trifluoromethyl)phenyl]phenyl]azetidine-3-carboxylic acid]: the Emax at NURR-1/RXRα turned out to be 86%; on NURR-1/RXRγ, 112%. The EC50 at NURR-1/RXRα was found to be 39 nM; at NURR-1/RXRγ it was 67 nM. For the same compound, the “percentage of activity relative to the BDNF reference” value in experiment [1] (compound 1 μM) amounted to 145%; in experiment [1] (compound 10 μM) it was 147%.
For the compound `CCC1CN(c2cccc(N3CC(C(=O)O)C3)c2)c2ccc(C(F)(F)F)cc2O1` (centres unmarked) [Example 114, 1-[3-[2-ethyl-7-(trifluoromethyl)-2,3-dihydro-1,4-benzoxazin-4-yl]phenyl]azetidine-3-carboxylic acid], the Emax on NURR-1/RXRα was 139%; at NURR-1/RXRγ, 150%. For the same compound, the EC50 at NURR-1/RXRα is 9 nM; at NURR-1/RXRγ, 11 nM. The “percentage of activity relative to the BDNF reference” value in experiment [1] (compound 1 μM) is listed as 101%; in experiment [1] (compound 10 μM) it was 89%.

The record behind these values is patent publication US20170066717A1, “NEW PHENYLAZETIDINECARBOXYLATE OR -CARBOXAMIDE COMPOUNDS” (INVENTIVA, priority 2014, published 2017).
